Source: the NIST ThermoML archive (doi:10.1016/j.fluid.2017.05.010)
± gives the expanded uncertainty stated by the source.

Details: Liquid; Resistive pulse heating

| Critical pressure | Critical temperature | Structure (SMILES) |
| --- | --- | --- |
| 3810 ± 110 kPa | 628 ± 6 K | CCc1ccccn1 [2-ethylpyridine] |
| 3250 ± 100 kPa | 656 ± 7 K | CCc1ccc(C)nc1 [3-ethyl-6-methylpyridine] |
| 4190 ± 130 kPa | 651 ± 7 K | CCc1cccnc1 [3-ethylpyridine] |
| 4190 ± 130 kPa | 653 ± 7 K | CCc1ccncc1 [γ-ethylpyridine] |
